Reference: the Kinase Knowledgebase extract (Sharma et al. 2016)

Target: PIK3CG (human) (UniProt P48736)
Assay: Assessment of PIK3CG Kinase Activity

PIK3CG (human), sequence (P48736 whole entry, looked up): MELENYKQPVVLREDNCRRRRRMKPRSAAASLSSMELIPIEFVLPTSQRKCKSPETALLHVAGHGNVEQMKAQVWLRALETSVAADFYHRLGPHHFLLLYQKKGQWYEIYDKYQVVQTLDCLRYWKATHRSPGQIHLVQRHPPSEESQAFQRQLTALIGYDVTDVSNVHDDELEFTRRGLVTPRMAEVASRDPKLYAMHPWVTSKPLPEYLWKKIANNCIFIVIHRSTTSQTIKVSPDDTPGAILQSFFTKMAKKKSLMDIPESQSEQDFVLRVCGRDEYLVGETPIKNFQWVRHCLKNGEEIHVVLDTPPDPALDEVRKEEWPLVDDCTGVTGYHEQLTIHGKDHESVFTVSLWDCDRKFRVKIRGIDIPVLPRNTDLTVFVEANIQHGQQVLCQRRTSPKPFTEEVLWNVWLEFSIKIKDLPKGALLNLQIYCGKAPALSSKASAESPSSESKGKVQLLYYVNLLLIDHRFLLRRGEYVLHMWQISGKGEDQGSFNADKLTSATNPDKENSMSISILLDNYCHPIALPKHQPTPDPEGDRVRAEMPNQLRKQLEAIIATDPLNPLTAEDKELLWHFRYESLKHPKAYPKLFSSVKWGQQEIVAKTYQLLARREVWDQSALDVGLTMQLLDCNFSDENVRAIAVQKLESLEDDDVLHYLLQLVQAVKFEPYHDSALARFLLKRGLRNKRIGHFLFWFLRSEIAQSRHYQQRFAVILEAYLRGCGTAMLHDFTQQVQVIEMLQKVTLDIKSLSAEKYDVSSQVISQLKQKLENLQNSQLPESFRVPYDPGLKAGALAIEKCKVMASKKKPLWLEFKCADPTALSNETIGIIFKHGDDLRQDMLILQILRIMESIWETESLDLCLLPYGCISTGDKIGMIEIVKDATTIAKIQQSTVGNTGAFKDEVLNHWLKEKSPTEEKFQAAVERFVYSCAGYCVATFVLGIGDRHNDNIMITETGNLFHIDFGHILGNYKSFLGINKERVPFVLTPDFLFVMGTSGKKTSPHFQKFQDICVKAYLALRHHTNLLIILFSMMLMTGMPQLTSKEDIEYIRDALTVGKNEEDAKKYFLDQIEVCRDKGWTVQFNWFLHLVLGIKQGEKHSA

| Structure (SMILES) | Ki [nM] |
| --- | --- |
| Cc1nc(NC(=O)NCCOCC2CC2)sc1C#Cc1cnc(Cl)c(F)c1 | 50 to 250 |
| Cc1nc(NC(=O)[C@@H]2CCC(=O)N2)sc1C#Cc1ccncc1 | 50 to 250 |
| CC(=O)Nc1nc(C)c(C#Cc2cccc(N)c2)s1 | 50 to 250 |
| Cc1nc(NC(=O)NCCCOCC2CC2)sc1C#Cc1ccncc1 | 50 to 250 |
| Cc1nc(NC(=O)NCCn2nnc3ccccc32)sc1C#Cc1ccncc1 | 50 to 250 |
| CC(=O)Nc1nc(C)c(C#Cc2ccsc2)s1 | 50 to 250 |
| COc1cccc(C#Cc2sc(NC(=O)NCCOCC3CC3)nc2C)c1 | 50 to 250 |
| Cc1nc(NC(=O)NCCOCC2CC2)sc1C#Cc1cnc2ccccc2c1 | 50 to 250 |
| Cc1ccc(OCCNC(=O)Nc2nc(C)c(C#Cc3ccncc3)s2)cc1 | < 50 |
| CC(=O)Nc1ccc(C#Cc2sc(NC(=O)NCCOCC3CC3)nc2C)cn1 | 50 to 250 |
| Cc1nc(NC(=O)CNC(=O)c2ccccn2)sc1C#Cc1cccnc1 | < 50 |
| Cc1cc(O)nc(CCNC(=O)Nc2nc(C)c(C#Cc3ccncc3)s2)n1 | 50 to 250 |
| CCc1cnc(CCNC(=O)Nc2nc(C)c(C#Cc3cncc(OC)c3)s2)s1 | < 50 |
| COc1ccc(C#Cc2sc(NC(=O)NC[C@H](C)C(=O)NC(C)(C)C)nc2C)cn1 | < 50 |
| Cc1nc(NC(=O)NCCC#N)sc1C#Cc1ccncc1 | < 50 |
| CC(=O)Nc1nc(C)c(C#Cc2cccc(C)c2)s1 | 50 to 250 |
| Cc1nc(NC(=O)NCCC(=O)OC(C)(C)C)sc1C#Cc1ccccc1 | < 50 |
| Cc1nc(NC(=O)CCCc2cc[nH]c2)sc1C#Cc1ccncc1 | 50 to 250 |

The next lines start with the values.

| Ki [nM] | Structure (SMILES) |
| --- | --- |
| < 50 | Cc1nc(NC(=O)NCc2ccccn2)sc1C#Cc1ccncc1 |
| < 50 | Cc1nc(NC(=O)NCCOCC2CC2)sc1C#Cc1cccc2ncccc12 |
| < 50 | CCCOCCNC(=O)Nc1nc(C)c(C#Cc2ccncc2)s1 |
| < 50 | CCOC(=O)CCCNC(=O)Nc1nc(C)c(C#Cc2ccncc2)s1 |
| < 50 | CC(=O)Nc1nc(C)c(C#Cc2ccncc2)s1 |
| < 50 | Cc1nc(NC(=O)NC[C@H](C)OCC2CC2)sc1C#Cc1ccc2nccnc2c1 |
| < 50 | COc1ccc(C#Cc2sc(NC(=O)NC[C@H](C)OCC3CC3)nc2C)cn1 |
| < 50 | COc1cc(C#Cc2sc(NC(=O)NCCn3cnc(C(F)(F)F)c3)nc2C)cnc1OC |
| < 50 | Cc1nc(NC(=O)NCCOCC2CC2)sc1C#Cc1ccnc(F)c1 |
| < 50 | Cc1nc(NC(=O)NCCC2CCCCO2)sc1C#Cc1ccncc1 (stereo not given) |
| < 50 | Cc1nc(NC(=O)NCCC(=O)c2ccccc2)sc1C#Cc1ccncc1 |
| < 50 | Cc1nc(NC(=O)NCCOc2cccc(F)c2)sc1C#Cc1ccncc1 |
